Results taken from paper PMC6713104, “New peptide derived antimalaria and antimicrobial agents bearing sulphonamide moiety” (Journal of Enzyme Inhibition and Medicinal Chemistry, 2019).
In brackets after ≈: the same amount, converted by molar mass. Like-named read-outs stand apart in the source and are kept apart here.

How the values were obtained:
P. falciparum strain W2 = test: In vitro antimalarial assay; format: cell-based; details: for MIC: Plasmodium falciparum, W2, P. falciparum
[1] = system: Plasmodium berghei infection in mice; test: In vivo antimalaria test; details: P. berghei infected mice; for inhibition in vivo at 100 mg/kg / inhibition in vivo at 200 mg/kg: Plasmodium berghei, oral; for ability to inhibit parasitaemia compared to the control drug: in words
Method: Experimental Design and Treatment of Mice. Methods of Peter et al.[30] and Kalra et al.[31] for antiplasmodial assay against Plasmodium berghei infection in mice with some modifications were employed. About eighty infected mice were randomly divided into five groups, each having […] mice. The inoculum was prepared from a donor mouse with rising parasitemia of 60.42%. After 7 days of infection, animals begin to receive treatment (100 and 200 mg/kg b wt.) of the synthesized compounds (7a–7n) for 12 days with constant check of the percentage of parasitemia after a 4-day interval. Artemisinin (100 and 200 mg/kg body weight.) was given to the other mice in group three as positive control, group four was not treated and group five was not infected. All the compounds and the drugs were given orally by using a standard intragastric tube. For all parasitemia determination, blood samples were collected from tail snip of each mouse and thin smears prepared and stained with 10% Giemsa solution. The uniform fields of each stained slide (for each mouse) were examined under microscope with an oil immersion objective of 100X magnification power and average percent of parasitemia was determined.
To determine the in vivo activity, the compounds were tested against P. berghei NK(65 Strain) infection mice., the animals were obtained from Nigeria institute for Trypanosoma and onchocercarioses Research (NTIR) Vom, Plateau State Nigeria. The permission and approval for the use of animals in this experiment were granted by the Animal Ethics Committee, Federal College of Vetrenary Medical Laboratory, Vom, Plateau State. Method of Peter et al.[30], for antiplasmodial assay against P. berghei in mice with some modification were employed. Artemisimin was used as treated control of the experiments. The percentage inhibition of parasite multiplication was calculated comparing the treated group with untreated group by means of the following formula[39] [(A − B)/A] × 100; where A = parasitaemia in the untreated group and B = parasitemia in the test group. […] Most of the compounds were active against P. berghei after 7 days post-infection by reducing the parasiteamia by at least 40% when in a dose of 100 mg/kg (Table 5). The inhibition of parasitaemia increased on 12th day post infection for almost all the compounds. […] However in consideration of the compounds ability to inhibit parasitaemia to the control drug. […] These compounds should be considered for further studies because of its promising activities.

C. albicans = test: Antimicrobial MIC, agar cup diffusion; format: cell-based; details: Candida albicans, read-out: MIC (minimum inhibitory concentration)
E. coli = test: Antimicrobial MIC, agar cup diffusion; format: cell-based; details: Escherichia coli, read-out: MIC (minimum inhibitory concentration)
B. subtilis = test: Antimicrobial MIC, agar cup diffusion; format: cell-based; details: for MIC: Bacillus subtilis, B. subtilis, read-out: MIC (minimum inhibitory concentration); for activity against Bacillus compared with ciprofloxacin: in words
S. typhi = test: Antimicrobial MIC, agar cup diffusion; format: cell-based; details: Salmonella enterica, read-out: MIC (minimum inhibitory concentration)
K. pneumoniae = test: Antimicrobial MIC, agar cup diffusion; format: cell-based; details: Klebsiella pneumoniae, read-out: MIC (minimum inhibitory concentration)
A. niger = test: Antimicrobial MIC, agar cup diffusion; format: cell-based; details: Aspergillus niger, read-out: MIC (minimum inhibitory concentration)
[2] = Renal or kidney function test; format: in vivo; details: mice, 10 mg/kg
Text: (§1) Twenty-four hours before the injecting the compounds, the blood sample of five mice was taken and it was also taken after the last day of treatment, the animals were sacrificed by cervical dislocation and the blood samples were collected by heart puncture. The blood samples for haematological parameters (red blood cell (RBC) count, white blood cell (WBC) count, packed cell volume (PCV), and hemoglobin (HGB)) were collected into EDTA bottles and analyzed using an automated machine (Automated CBC Analyzer: Sysmex KX-21). Kidney function tests carried out with the blood of the rats fed with the sulfonamide derivatives were, creatinine and albunim. The method reported by Kaplan and Tengv[33] was used in the determination of creatinine.

Liver function tests = format: in vivo; design: Glucose: unit not given here; details: mice, 10 mg/kg
Text: as §1, with “KX-21). The liver” for “KX-21). Kidney”, “derivatives were aspartate aminotransperase (AST), alanine transaminase (ALT)” for “derivatives were, creatinine”, “and alkaline phosphatase (ALP). Standard laboratory procedure according to Reitman” for “and albunim. The method reported by Kaplan”, “and Franke[32]” for “and Tengv[33]”, “used for” for “used in”, “of parameters.” for “of creatinine.”

Haematological analysis = format: in vivo, mice
Text: as §1, with “KX-21).” for “KX-21). Kidney function tests carried out with the blood of the rats fed with the sulfonamide derivatives were, creatinine and albunim. The method reported by Kaplan and Tengv[33] was used in the determination of creatinine.”
The blood samples for haematological parameters (red blood cell (RBC) count, white blood cell (WBC) count, packed cell volume (PCV), and haemoglobin (HGB)) were collected into EDTA bottles and analyzed using an automated machine (Automated CBC Analyzer: Sysmex KX-21) (Table 8). From the analysis, even though there is a decrease in the value of RBC, PCV and HB, it is observed that there is no significant changes in the parameters that were analyzed for the control and the test compounds.

[3] = 48 h, >99% of parasites inhibited from developing to schizonts
[4] = 168 h, read-out: % inhibition 7 days post-treatment (100 mg/kg), day 7
[5] = 168 h, read-out: % inhibition 7 days post-treatment (200 mg/kg), day 7
[6] = 288 h, read-out: % inhibition 12 days post-treatment (100 mg/kg), day 12
[7] = 288 h, read-out: % inhibition 12 days post-treatment (200 mg/kg), day 12

| SMILES | MIC (P. falciparum strain W2; [3]) [µM] | melting point [°C] | inhibition in vivo at 100 mg/kg [1, 4] [%] | inhibition in vivo at 200 mg/kg [1, 5] [%] | inhibition in vivo at 100 mg/kg [1, 6] [%] | inhibition in vivo at 200 mg/kg [1, 7] [%] | MIC (C. albicans) [µg/mL] | MIC (E. coli) [µg/mL] | MIC (B. subtilis) [µg/mL] | activity against Bacillus compared with ciprofloxacin (B. subtilis) | MIC (S. typhi) [µg/mL] | MIC (K. pneumoniae) [µg/mL] | MIC (A. niger) [µg/mL] | MIC (P. falciparum strain W2) [µM] | Albumin ([2]; After) [g/dL] | Creatinine ([2]; After) [mg/dL] | Albumin ([2]; Before) [g/dL] | Creatinine ([2]; Before) [mg/dL] | ALT (Liver function tests; After) [µ/L] | AST (Liver function tests; After) [µ/L] | other results |
| --- | --- | --- | --- | --- | --- | --- | --- | --- | --- | --- | --- | --- | --- | --- | --- | --- | --- | --- | --- | --- | --- |
| CC(NS(=O)(=O)c1ccccc1)C(=O)NCC(=O)Nc1ccc(Cl)cc1 (stereo not drawn) [Compound 7b] | 0.87 (≈ 0.344 µg/mL) | 140 to 142 | 51.3 | 57.6 | 55.2 | 53.4 | 135 (≈ 341 µM) | 467 (≈ 1180 µM) | 129 (≈ 326 µM) | greater activity against Bacillus than ciprofloxacin | 602 (≈ 1520 µM) | 1690 (≈ 4270 µM) | 100 (≈ 253 µM) | – | – | – | – | – | – | – | – |
| Cc1ccc(NC(=O)CNC(=O)C(C)NS(=O)(=O)c2ccccc2)cc1 (stereo not drawn) [Compound 7e] | 0.05 (≈ 0.0188 µg/mL) | 160 to 162 | 62.3 | 40.2 | 66.7 | 50.7 | 28.8 (≈ 76.7 µM) | 6330 (≈ 16900 µM) | – | – | 194 (≈ 517 µM) | – | 2090 (≈ 5560 µM) | 30 (≈ 11.3 µg/mL) | 3.5 | 0.3 | 4.1 | 0.3 | 22.0 | 60.5 | Bilirubin (Liver function tests; After): 0.2 mg/dL; Glucose (Liver function tests; After): 5.0; T.P. (Liver function tests; After): 4.5 g/dL; ALT (Liver function tests; Before): 24.0 µ/L; AST (Liver function tests; Before): 64.0 µ/L; Bilirubin (Liver function tests; Before): 0.3 mg/dL; Glucose (Liver function tests; Before): 5.8; T.P. (Liver function tests; Before): 5.8 g/dL; ability to inhibit parasitaemia compared to the control drug [1]: almost the same or better activity compared to the artemisinin; HB (Haematological analysis; After treatment): 11.0 g/dL; PCV (Haematological analysis; After treatment): 35%; RBC (Haematological analysis; After treatment): 6.0 × 10^6 mm^3; WBC (Haematological analysis; After treatment): 10.5 × 10^3 mm^3; HB (Haematological analysis; Before treatment): 14.1 g/dL; PCV (Haematological analysis; Before treatment): 36%; RBC (Haematological analysis; Before treatment): 6.85 × 10^6 mm^3; WBC (Haematological analysis; Before treatment): 12.2 × 10^3 mm^3 |
| CC(NS(=O)(=O)c1ccccc1)C(=O)NCC(=O)Nc1ccc2ccccc2c1 (stereo not drawn) [Compound 7g, N-(2-(naphthalene-2-ylamino)-2-oxoethyl)-2-(phenylsulfonamido)propanamide] | 3.23 (≈ 1.33 µg/mL) | 170 to 172 | 27.5 | 54.7 | 36.8 | 51.9 | 29.7 (≈ 72.2 µM) | – | 141 (≈ 343 µM) | greater activity against Bacillus than ciprofloxacin | 79 (≈ 192 µM) | 166 (≈ 403 µM) | 158 (≈ 384 µM) | – | – | – | – | – | – | – | – |
| Cc1ccc(S(=O)(=O)NC(C)C(=O)NCC(=O)Nc2cccc(Cl)c2)cc1 (stereo not drawn) [Compound 7h, N-(2-((3-chlorophenyl)amino)-2-oxoethyl)-2–(4-methylphenylsulfonamido)propanamide] | 0.03 (≈ 0.0123 µg/mL) | 120 to 122 | 61.4 | 49.9 | 57.8 | 55.2 | 34 (≈ 82.9 µM) | 239 (≈ 583 µM) | 214 (≈ 522 µM) | – | 1290 (≈ 3140 µM) | 5250 (≈ 12800 µM) | 31.6 (≈ 77.1 µM) | 50 (≈ 20.5 µg/mL) | 3.9 | 0.3 | 3.9 | 0.3 | 24.5 | 69.5 | in vitro antimalarial activity relative to other compounds and standard drugs (P. falciparum strain W2; in words): best activity; Bilirubin (Liver function tests; After): 0.3 mg/dL; Glucose (Liver function tests; After): 5.5; T.P. (Liver function tests; After): 5.5 g/dL; ALT (Liver function tests; Before): 25.4 µ/L; AST (Liver function tests; Before): 65.0 µ/L; Bilirubin (Liver function tests; Before): 0.4 mg/dL; Glucose (Liver function tests; Before): 5.9; T.P. (Liver function tests; Before): 6.0 g/dL; ability to inhibit parasitaemia compared to the control drug [1]: almost the same or better activity compared to the artemisinin; HB (Haematological analysis; After treatment): 10.0 g/dL; PCV (Haematological analysis; After treatment): 34%; RBC (Haematological analysis; After treatment): 5.9 × 10^6 mm^3; WBC (Haematological analysis; After treatment): 9.3 × 10^3 mm^3; HB (Haematological analysis; Before treatment): 13.4 g/dL; PCV (Haematological analysis; Before treatment): 39%; RBC (Haematological analysis; Before treatment): 7.3 × 10^6 mm^3; WBC (Haematological analysis; Before treatment): 9.4 × 10^3 mm^3 |
| Cc1ccc(NC(=O)CNC(=O)C(C)NS(=O)(=O)c2ccc(C)cc2)cc1 (stereo not drawn) [Compound 7l, 2–(4-methylphenylsulfonamido)-N-(2-oxo-2-(p-tolylamino)ethyl)propanamide] | 0.93 (≈ 0.362 µg/mL) | 120 to 122 | 38.2 | 60.7 | 41.7 | 74.6 | 174 (≈ 447 µM) | 169 (≈ 434 µM) | 245 (≈ 629 µM) | – | 57 (≈ 146 µM) | 107 (≈ 275 µM) | 123 (≈ 316 µM) | – | – | – | – | – | – | – | – |
